Laboratory results reported in patent US20230357179A1, “RAF KINASE INHIBITORS AND METHODS OF USE THEREOF” (Deciphera Pharmaceuticals, LLC, priority 2021, published 2023).

Tested on: H2405 cells
Assay: H2405 cell proliferation assay (2), resazurin, 384-well
Type: cell-based
Settings: Homo sapiens, NCI-H2405, inhibition of cell proliferation, 67-72 h
Protocol: H2405 Cell Proliferation Assay (2)
H2405 cells (catalog #CRL-5994) are obtained from the American Type Culture Collect (ATTC, Manassas, VA). Briefly, cells were grown in RPMI 1640 supplemented with 5% characterized fetal bovine serum (Invitrogen, Carlsbad, CA) and 1% Penicillin/Streptomycin/L-Glutamine at 37° C., 5% CO2, and 95% humidity. Cells are expanded until reaching 70-95% confluency at which point they are sub-cultured or harvested for assay use. A serial dilution of test compound is dispensed into a 384-well black clear bottom plate in triplicate. Seven hundred fifty cells are added per well in 50 μL complete growth medium in the 384-well plate. Plates are incubated for 67-72 h at 37° C., 5% CO2, and 95% humidity. At the end of the incubation, 10 μL of a 440 μM solution of resazurin (Sigma, St. Louis, MO) in PBS is added to each well of the plate and plates are incubated for an additional 5-6 h at 37° C., 5% CO2, and 95% humidity. Plates are read on a Synergy2 or equivalent reader (Biotek, Winooski VT) using an excitation of 540 nm and an emission of 600 nm. Data is analyzed using Prism software (GraphPad, San Diego, CA) to calculate IC50 values

| IC50 [µM] | SMILES |
| --- | --- |
| ≤ 0.1 | Cc1cc(F)c(NC(=O)N2CC[C@H](C(F)(F)F)C2)cc1-c1cncc(-c2cc(NC(=O)C3CC3)ncn2)c1 [Example 216] |
| ≤ 0.1 | Cc1ccc(NC(=O)N2CC[C@H](C(F)(F)F)C2)cc1-c1cncc(-c2cc(NC(=O)C3CC3)ncn2)c1 [Example 195] |
